According to US6555663B1, “Prodrugs for selective drug delivery” (priority 1986, dated 2003):

Assays:
[1] = test system: RSFFV (Raucher Spleen Focus Forming Virus); experiment: Treatment of C3H mice infected with Raucher Spleen Focus Forming Virus: spleen weight; type: in vivo
Method: The effectiveness of MTL J-1 was tested in C3H mice against the virus RSFFV (Raucher Spleen Focus Forming Virus) which is a retrovirus and is a valid animal model for HIV infection by application to the above identified mice according to the following procedure:
(§1) Three groups of two month old C3H mice, each comprising four animals were provided as one control and two test groups, wherein, the three-groups (I-III) were subjected to an infectious dose of RSFFV on day one. The first group (I) served as control and received no treatment. Group II and III were treated with […] total body weight concentration of the drug Foscarnet and the test compound MTL J-1, respectively which was administered each day for days 5 through 9. The animals were sacrificed on day 14, where upon the spleens where removed and weighed.
(§2) The tests were redone with a second control group (IA) having no infection of RSFFV and receiving no treatment with any drug, wherein groups I and IA comprise four mice each, and groups II and III comprise five mice each, providing the results summarized below: […]

[2] = Body weight of treated RSFFV-infected C3H mice (toxicity); type: in vivo
Method: as §1, §2

[3] = RSFFV-infected C3H mice, 10 μM total body weight concentration, days 5 through 9
[4] = first test (Table 1), RSFFV on day one, 10 μM total body weight concentration each day for days 5 through 9, sacrificed day 14
[5] = repeat test (Table 2) with a second, uninfected control group IA, same treatment

Substance	Effectiveness, as demonstrated by the absence of splenomegaly [1, 3]	Spleen weight Normalized [1, 4]	Spleen weight Normalized [1, 5]	Toxicity, as demonstrated by an absence of weight loss [2, 3]	Ending Weight ([2]; mouse, in vivo)	Weight change ([2]; mouse, in vivo)	Ending Weight [2, 4]	Weight change [2, 4]	Ending Weight [2, 5]	Weight change [2, 5]
5-phosphonoformate-1,5-di-(p-N-2-(N-(4-aminobutyl)-N-ethylisoluminol)-N-ethylaminophenyl)-1,5-bis-(p-N,N-dimethylaniline)-1,3-pentadiene [MTL J-1]	highly effective	.068 grams	0.049 grams	nontoxic	19.2 grams	+1.5 grams				
phosphonoformate [Foscarnet]		.079 grams	0.061 grams				21.2 grams	0.15 grams	19.6 grams	+1.6 grams
